Measurements: US20250073138A1, “Lipid-based nanoparticles for enhancing percutaneous absorption and manufacturing method thereof” (COSMECCA KOREA CO., LTD., priority 2023, published 2025)

Tested on: HaCaT, a human keratinocyte cell line
Assay: Live/dead fluorescence staining cytotoxicity
Type: cell-based
Conditions: treated at different concentrations for 24 h, calcein-AM / ethidium homodimer
Description: First, HaCaT, a human keratinocyte cell line, was treated with tannic acid, TAMA, and TAMA-introduced nanoparticles (TANV) at different concentrations for 24 h. Thereafter, calcein-acetoxymethyl ester (calcein-AM), which stains viable cells, and ethidium homodimer, which stains dead cells, were treated simultaneously, and then washed twice with the PBS buffer solution to obtain images of viable and dead cells through fluorescence microscopy.

| Molecule | cytotoxicity (live/dead assay) |
| --- | --- |
| O=C(OC[C@H]1O[C@@H](OC(=O)c2cc(O)c(O)c(OC(=O)c3cc(O)c(O)c(O)c3)c2)[C@H](OC(=O)c2cc(O)c(O)c(OC(=O)c3cc(O)c(O)c(O)c3)c2)[C@@H](OC(=O)c2cc(O)c(O)c(OC(=O)c3cc(O)c(O)c(O)c3)c2)[C@@H]1OC(=O)c1cc(O)c(O)c(OC(=O)c2cc(O)c(O)c(O)c2)c1)c1cc(O)c(O)c(OC(=O)c2cc(O)c(O)c(O)c2)c1 [tannic acid] | cytotoxicity and death occurred significantly |
| tannic acid-maleimide [TAMA] | a slight level of cytotoxicity |
